Experimental data as given in publication PMC11694611, “α‐Triazolylboronic Acids: A Novel Scaffold to Target FLT3 in AML” (Chemmedchem, 2024).
Where two headings read alike, the source gives them in different places.

How the values were obtained:
[1] = molecular target: T1, recombinant His-tagged FLT3 kinase domain (aa 569–992) (Homo sapiens, UniProt P36888); test: ELISA-based in vitro FLT3 kinase assay; type: biochemical; details: recombinant FLT3, 300 μM ATP
T1 construct: FLT3 kinase domain (aa 569–992); His; made in house; host or cells: Sf9 cells
T1 sequence (P36888 569-992): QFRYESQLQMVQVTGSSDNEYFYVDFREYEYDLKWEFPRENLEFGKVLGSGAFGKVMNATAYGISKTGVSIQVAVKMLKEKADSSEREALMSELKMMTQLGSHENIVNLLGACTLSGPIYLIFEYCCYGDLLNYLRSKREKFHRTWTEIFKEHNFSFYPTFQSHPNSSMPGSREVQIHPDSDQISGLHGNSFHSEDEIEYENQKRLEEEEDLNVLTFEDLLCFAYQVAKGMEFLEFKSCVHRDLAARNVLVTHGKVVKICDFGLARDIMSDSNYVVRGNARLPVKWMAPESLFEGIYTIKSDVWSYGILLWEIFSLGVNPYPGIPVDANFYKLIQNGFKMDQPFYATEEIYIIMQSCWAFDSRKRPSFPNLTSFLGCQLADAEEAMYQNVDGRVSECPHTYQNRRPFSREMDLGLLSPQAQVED
Experimental: (§1) In vitro kinase assays and cell viability assays were performed as described (Mologni et al., 2022).[50] Briefly, recombinant His‐tagged FLT3 kinase domain (aa 569–992) was expressed in Sf9 cells and purified by nickel ion affinity chromatography. The purified enzyme was employed in an ELISA‐based kinase assay with 300 μM ATP and a Tyr‐phosphorylatable substrate peptide, using an anti‐phosphotyrosine antibody for detection (PY20; Santa Cruz Biotech). Cell viability was determined by MTS assay using the CellTiter 96® AQueous One Solution Cell Proliferation Assay kit (Promega) according to manufacturer's instructions. Dose‐response curves were calculated by non‐linear regression (log[inhibitor] vs normalized response) using GraphPad Prism software.

MOLM-14 cells (FLT3-ITD) = test: Cell viability by MTS assay, MOLM-14 cells; type: cell-based; details: Homo sapiens, read-out: MOLM-14 (IC50, mean±SEM)
MV-4-11 cells (FLT3-ITD) = test: Cell viability by MTS assay, MV-4-11 cells; type: cell-based; details: Homo sapiens, MV4-11, read-out: MV-4-11 (IC50, mean±SEM)
Experimental: Cellular assays were carried out on MV‐4‐11 cells, driven by the FLT3‐ITD mutation.
as §1, with “The” for “In vitro kinase assays and cell viability assays were performed as described (Mologni et al., 2022).[50] Briefly, recombinant His‐tagged FLT3 kinase domain (aa 569–992) was expressed in Sf9 cells and purified by nickel ion affinity chromatography. The”

[2] = tested on: FLT3-wild type HL60 cells; test: Cytotoxicity by MTS assay, control cell line HL60; type: cell-based; details: for IC50: Homo sapiens, HL-60, read-out: HL60 (IC50, mean±SEM)
Experimental: Compounds 4 a, 4 d, 4 e, 4 g and 4 q were among the best inhibitors in enzymatic assays and confirmed their activity also in cellular tests on FLT3‐driven MV‐4‐11 and on MOLM‐14 cell lines. To confirm their cellular mechanism of action, we assayed their cytotoxicity against FLT3‐wild type HL60 cells.
as §1

[3] = cited from earlier work
[4] = Table 1, read-out: FLT3 Kinase Activity (IC50, mean±SEM)
[5] = Table 2, FLT3-ITD cell line, MTS viability
[6] = Table 3, FLT3-wild type control cell line
[7] = Table 2, read-out: FLT3 Kinase (IC50, mean±SEM)
[8] = Table 4, control analogues lacking boronic group

Row | SMILES | IC50 [1, 4] [µM] | IC50 (MV-4-11 cells (FLT3-ITD); [5]) [µM] | IC50 [1, 7] [µM] | other results
1 | O=C(Nc1ccccc1)NC(Cc1cccc(C(=O)O)c1)B(O)O (stereo not shown) [1 a] | > 100 |  |  | 
2 | O=C(Cc1ccc(-c2nn[nH]n2)cc1)NCB(O)O [1 b] | > 100 |  |  | 
3 | Cc1onc(-c2ccccc2Cl)c1C(=O)NCB(O)O [1 c] | > 100 |  |  | 
4 | O=C(Cc1cccs1)NC(B(O)O)c1ccccc1 (stereo not shown) [1 d] | > 100 |  |  | 
5 | O=C(NCB(O)O)c1ccc(-c2nnn[nH]2)cc1 [1 e] | > 100 |  |  | 
6 | O=C(CSc1ccncc1)NCB(O)O [1 f] | > 100 |  |  | 
7 | O=C(Cc1ccc(O)c(O)c1)NCB(O)O [1 g] | > 100 |  |  | 
8 | Nc1cccc(-c2cn(CC(NC(=O)Cc3ccccc3)B(O)O)nn2)c1 (stereo not shown) [2 a] | > 100 |  |  | 
9 | NC(=O)c1cn(CC(NC(=O)Cc2cccs2)B(O)O)nn1 (stereo not shown) [2 b] | > 100 |  |  | 
10 | Nc1nnc(SCC(=O)NC(Cn2cc(C(=O)O)nn2)B(O)O)s1 (stereo not shown) [2 c] | > 100 |  |  | 
11 | CC(=O)NC(Cn1cc(-c2ccccc2)nn1)B(O)O (stereo not shown) [2 d] | > 100 |  |  | 
12 | CC(=O)NC(Cn1cc(C(C)(C)O)nn1)B(O)O (stereo not shown) [2 e] | > 100 |  |  | 
13 | O=S(=O)(Cc1ccccc1)NCB(O)O [3 a] | > 100 |  |  | 
14 | CC(C)C(NS(=O)(=O)Cc1ccccc1)B(O)O (stereo not shown) [3 b] | > 100 |  |  | 
15 | CC(NS(=O)(=O)Cc1ccccc1)B(O)O (stereo not shown) [3 c] | > 100 |  |  | 
16 | Cc1ccc(S(=O)(=O)Nc2cccc(-c3cn(CB(O)O)nn3)c2)cc1 [4 a] | 18 ± 1 | 14 ± 0.2 |  | IC50 (MOLM-14 cells (FLT3-ITD); [5]): 5.8 ± 0.7 µM; IC50 [2, 6]: > 100 µM
17 | NS(=O)(=O)c1cccc(-c2cn(CB(O)O)nn2)c1 [4 f] | > 100 | > 100 |  | 
18 | O=S(=O)(CC(F)(F)F)NCc1cn(CB(O)O)nn1 [4 k] |  | > 100 | 5.8 ± 0.9 | 
19 | COC(=O)c1ccc(CS(=O)(=O)NCc2cn(CB(O)O)nn2)cc1 [4 m] |  | > 100 | > 100 | 
20 | CS(=O)(=O)NCc1cn(CB(O)O)nn1 [4 p] |  | > 100 | 42 ± 5 | 
21 | O=C(NCc1cn(CB(O)O)nn1)C(F)(F)F [4 v] |  | > 100 | > 100 | FLT3 Kinase (IC50, mean±SEM) ([1]; Table 2): lose enzymatic activity
22 | Nc1ccc(-c2cn(CC(=O)O)nn2)cc1 [5 e, 2‐(4‐(4‐aminophenyl)‐1H‐1,2,3‐triazol‐1‐yl)acetic acid] |  |  |  | IC50 (MOLM-14 cells (FLT3-ITD); [8]): > 100 µM; IC50 (MV-4-11 cells (FLT3-ITD); [8]): > 100 µM; IC50 [2, 8]: > 100 µM
23 | CCCCn1cc(-c2ccc(N)cc2)nn1 [6 e, 4‐(1‐butyl‐1H‐1,2,3‐triazol‐4‐yl)aniline] |  |  |  | IC50 (MOLM-14 cells (FLT3-ITD); [8]): > 100 µM; IC50 (MV-4-11 cells (FLT3-ITD); [8]): > 100 µM; IC50 [2, 8]: > 100 µM
24 | [Cl-].[Na+] [NaCl] |  |  |  | LD50 [3]: 3000 mg/kg
25 | Cc1ccc(C(=O)Nc2ccc(CN3CCN(C)CC3)c(C(F)(F)F)c2)cc1C#Cc1cnc2cccnn12 [ponatinib, reference compound] |  | 0.007 ± 0.002 |  | IC50 (MOLM-14 cells (FLT3-ITD); [5]): 0.001 ± 0.0001 µM

More lines, main results first:

Row | IC50 [1, 4] [µM] | IC50 (MV-4-11 cells (FLT3-ITD); [5]) [µM] | IC50 [1, 7] [µM] | SMILES | other results
26 | > 100 | > 100 |  | NC(=O)c1cccc(-c2cn(CB(O)O)nn2)c1 [4 b] | 
27 | > 100 | > 100 |  | O=C(O)c1cccc(-c2cn(CB(O)O)nn2)c1 [4 c] | 
28 | 25 ± 2 | 11 ± 1 |  | Cc1cccc(-c2cn(CB(O)O)nn2)c1 [4 d] | IC50 (MOLM-14 cells (FLT3-ITD); [5]): 3 ± 0.5 µM; IC50 [2, 6]: 32 ± 4 µM; HL60 (IC50, mean±SEM) [2, 6]: moderate inhibition of HL60
29 | 6.7 ± 1.7 | 14 ± 3 |  | Nc1cccc(-c2cn(CB(O)O)nn2)c1 [4 e] | IC50 (MOLM-14 cells (FLT3-ITD); [5]): 11 ± 1 µM; IC50 [2, 6]: > 100 µM
30 | 18 ± 5 | 2.7 ± 0.9 |  | OB(O)Cn1cc(-c2cccc(Cl)c2)nn1 [4 g] | IC50 (MOLM-14 cells (FLT3-ITD); [5]): 0.68 ± 0.08 µM; IC50 [2, 6]: 15 ± 1 µM; HL60 (IC50, mean±SEM) [2, 6]: moderate inhibition of HL60
31 |  | > 100 | > 100 | OB(O)Cn1cc(-c2cnccn2)nn1 [4 h] | 
32 |  | > 100 | > 100 | OB(O)Cn1cc(-c2cccnc2)nn1 [4 i] | 
33 |  | 100 | 76 ± 13 | OB(O)Cn1cc(-c2cccs2)nn1 [4 j] | IC50 (MOLM-14 cells (FLT3-ITD); [5]): 11 ± 2 µM
34 |  | > 100 | 25 ± 5 | O=S(=O)(NCc1cn(CB(O)O)nn1)c1cccs1 [4 l] | 
35 |  | > 100 | > 100 | O=C(O)c1cccc(CS(=O)(=O)NCc2cn(CB(O)O)nn2)c1 [4 n] | 
36 |  | > 100 | 65 ± 11 | COC(=O)c1cccc(CS(=O)(=O)NCc2cn(CB(O)O)nn2)c1 [4 o] | 
37 |  | 10 ± 1 | 18 ± 3 | Cc1ccc(S(=O)(=O)Nc2cccc(OCc3cn(CB(O)O)nn3)c2)cc1 [4 q] | IC50 (MOLM-14 cells (FLT3-ITD); [5]): 4.3 ± 0.5 µM; IC50 [2, 6]: > 100 µM
38 |  | 1.1 ± 0.1 | > 100 | OB(O)Cn1cc(COc2ccccc2)nn1 [4 r] | IC50 (MOLM-14 cells (FLT3-ITD); [5]): 0.16 ± 0.01 µM; FLT3 Kinase (IC50, mean±SEM) ([1]; Table 2): do not inhibit FLT3
39 |  | > 100 | 3.2 ± 0.4 | O=C(NCc1cn(CB(O)O)nn1)c1ccccc1 [4 t] | 
40 |  | 7.6 ± 3.9 | > 100 | OB(O)Cn1cc(CNc2ccccc2)nn1 [4 u] | IC50 (MOLM-14 cells (FLT3-ITD); [5]): 8.7 ± 1.4 µM; FLT3 Kinase (IC50, mean±SEM) ([1]; Table 2): lose enzymatic activity
41 |  | 1.4 ± 0.3 | > 100 | O=C(OCc1cn(CB(O)O)nn1)c1ccccc1 [4 w] | IC50 (MOLM-14 cells (FLT3-ITD); [5]): 0.35 ± 0.01 µM; FLT3 Kinase (IC50, mean±SEM) ([1]; Table 2): do not inhibit FLT3
